Data: article PMC11099041, “Tissue distribution and retention drives efficacy of rapidly clearing VHL-based PROTACs” (Communications Medicine, 2024)

Details: rat, in vivo, iv, 4 mg/kg
Text: Male Sprague Dawley rats, intact or bile-cannulated, were from Envigo RMS, Inc. The animals were acclimated to study conditions for five days prior to dose administration. During acclimation, animals were individually housed in suspended, stainless steel, wire-mesh cages. During the test period, animals were placed in Nalgene cages designed for the collection of urine, feces, and bile. Certified Rodent Diet #2016C or 2016CM (Envigo RMS, Inc.) were provided ad libitum. Water was provided fresh daily. Environmental controls for the animal room were set to maintain a temperature of 20-26 °C, a relative humidity of 50 ± 20%, and a 12-hour light/12-hour dark cycle. […] The vehicle for the IV dose was 20% 2-hydroxypropyl-β-cyclodextrin (HP-β-CD) in 50 mM sodium acetate buffer, pH 4.0. […] The supernatant was removed, and the formulation appeared to be a very slight yellow solution. Stability was checked by HPLC analysis of pre- and post-dose aliquots. Animals were not fasted. The actual amount administered was determined by weighing the dose syringe before and after dose administration. The IV dose of 4 mg/kg was administered via a tail vein. For QWBA rats, one animal/time point was prepared for QWBA at approximately 0.25, 1, 4, 8, 24, 48, 168, and 336 hours. […] Blood was maintained on wet ice until being aliquoted for radioanalysis and centrifuged to obtain plasma. […] Each carcass was drained, blotted dry, placed into an appropriately labeled bag, and placed on dry ice or stored at ~-70 °C for at least 2 hours. The frozen carcasses were embedded in chilled carboxymethylcellulose and frozen into blocks. Embedded carcasses were stored at ~-20 °C in preparation for autoradiographic analysis. The samples were stored at -70 °C before analysis. […] All samples were analyzed for radioactivity in PerkinElmer Model 2910TR liquid scintillation counters for at least 5 min or 100,000 counts. Each sample was homogenized or mixed, as applicable, before radioanalysis in duplicate within 10% of the mean value. Scintillation counting data were automatically corrected for counting efficiency using the external standardization technique and an instrument-stored quench curve generated from a series of sealed quenched standards. […] The samples were allowed to sit at least overnight to allow any foaming to dissipate. Ultima Gold XR scintillation cocktail was added, and the samples were shaken and analyzed by liquid scintillation counting (LSC). Plasma was also analyzed by LSC. The urine, bile, cage rinse, and cage wash samples were mixed by shaking, and duplicate weighed aliquots were analyzed directly by LSC. The mean time concentration profile was generated for each group, and an overall AUC was then calculated with these sparse samples of rats and mice. […] The following parameters were estimated whenever possible: C0, Back-extrapolated concentration at time 0; Cmax, Maximum observed concentration; Tmax, Time of maximum observed concentration; AUC0-t, Area under the concentration-time curve from hour 0 to the last measurable concentration, estimated by the linear trapezoidal rule; AUC0-336, Area under the concentration-time curve from hour 0 to hour 336, estimated by the linear trapezoidal rule; DN AUC0-336, Dose normalized AUC0-336, calculated as AUC0-336/dose level; AUC0-∞, Area under the concentration-time curve from hour 0 to infinity (Day 1 only), calculated as follows: AUC0-∞ = AUC0-t + Ct/λz, where Ct is the last measurable concentration and λz is the elimination rate constant; t1/2, Elimination half-life, determined by ln(2)/λz; CL, Clearance, calculated as dose/AUC0-inf; Vd, Volume of distribution based on the terminal phase, calculated as: dose/(λz × AUC0-∞) Nominal doses and sampling times were used. […] Embedded zeros were excluded from kinetic analysis.

SMILES: Cc1ncsc1-c1ccc(C(C)NC(=O)C2CC(O)CN2C(=O)C(c2cc(N3CCC(CN4CCC(OC5CC(Oc6cc(N7C8CCC7CN(c7cc(-[14c]9[14cH][14cH][14cH][14cH][14c]9O)nnc7N)C8)ccn6)C5)CC4)CC3)no2)C(C)C)cc1 (stereo not drawn) [14C-A947]
- AUC0–∞ in plasma and blood: ~ 18 µg h/g
- Cmax of radioactivity in blood: 1.13 µg/g
- Cmax of radioactivity in plasma: 1.22 µg/g
- Initial decrease of radioactivity in blood and plasma: greater than 90%
- Radioactivity in plasma and blood at 336 hours: 3 to 6 ng/g
- Terminal clearance (CL): ~ 5.8 mL/min/kg
- Terminal elimination half-life (t1/2) in plasma and blood: 72 to 75 h
- Tmax in blood and plasma: 0.25 h
- Volume of distribution (Vd): 23.9 L/kg
